Results taken from BindingDB's records for doi:10.1021/jm0502182 (Institute of Cancer Research, 2005).

Experiment: Inhibitory activity against carboxypeptidase G2 from pseudomonas RS16

Compound | Ki
O=C(O)CC[C@H](NC(=O)c1c(F)c(F)c(N(CCCl)CCCl)c(F)c1F)C(=O)O [(S)-2-{4-[Bis-(2-chloro-ethyl)-amino]-2,3,5,6-tetrafluoro-benzoylamino}-pentanedioic acid] | 127 µM
O=C(O)CC[C@H](NC(=O)c1c(F)c(F)c(N(CCI)CCI)c(F)c1F)C(=O)O [(S)-2-{4-[Bis-(2-iodo-ethyl)-amino]-2,3,5,6-tetrafluoro-benzoylamino}-pentanedioic acid] | 276 µM
